Experimental data taken from US7919579B2, “Imaging and therapeutic targeting of prostate and bladder tissues” (The Board of Regents of the University of Texas System, priority 2006, dated 2011).
No end group written: not given here. *: point of attachment. FITC = O=C1OC2(c3ccc(O)cc3Oc3cc(O)ccc32)c2ccc(NC(=S)*)cc21

Columns and labels:
[1] = tested on: R11 uptake by bladder cancer cells; assay: inhibitor and GAG competition of R11 uptake in bladder cancer cells; assay type: cell-based, human; details: for competition of R11 uptake by GAGs: various concentrations of GAG with 5 μM R11, 30 min
Description: FIGS. 10A-C—Determination of primary interaction molecule for R11 uptake in several bladder cancer cells. Human bladder cancer cells were pre-treated with various inhibitors (FIG. 10A: EIPA; FIG. 10B: Toxin B) 2 h and then incubated with 5 μM CPPs for 30 min before harvesting cell for determining cellular uptake. For competition assay, various concentrations of GAG's and 5 μM R9, R11, or R13 were added into cells for 30 min before harvesting cell for determining cellular uptake (FIG. 10C). Relative uptake was determined based on control (=1).
In order to define R11 as a bladder-specific molecular probe, it is critical to unveil the mechanism of R11 uptake. […] Furthermore, they examined a variety of glycosaminoglycans (GAGs) commonly detected in bladder wall (De Klerk, 1985) for their abilities to block the R11 uptake.

[2] = tested on: PCa cells (LNCaP, C4-2, LAPC4 and PC3); assay: uptake of FITC-tagged CPPs by PCa cells (fluorometer); assay type: cell-based; details: four PCa cells; 30 minutes
Description: Cell culture and peptide incubation. All PCa cell lines (LNCaP, C4-2, LAPC4 and PC3) were maintained as described previously (Zhou et al., 2005). To determine the peptide uptake, 1×10^5 cells per well were plated in a 12-well plate. Next day, the culture medium was replaced with RPMI medium supplemented with 0.5% FBS (Invitrogen, Carlsbad, Calif.) containing different concentrations fluorescence (FITC)-tagged peptides and incubation was carried out at the indicated time. For determining cellular location of peptide, cells were cultured overnight in slide chamber at a density of 25×10^4/cm^2. The FITC tagged peptides were incubated for 30 minutes in the presence of RPMI medium supplemented with 0.5% of FBS prior to fluorescence microscopy.
Fluorescence intensity determination and Fluorescence microscopy.
Screening of the most efficient CPP uptake by prostate cancer (PCa) cell lines. To deliver small peptide into target cells, CPP was employed as a delivery system. Five different CPPs were synthesized including TAT (amino acid 49-57), Penetratin (Antennapedia 43-58) (PENE), KALA peptide, poly-arginine (R11) and poly-lysine (K11). All the CPPs were incorporated with a FITC-labeled glycine at their N-terminal ends. […] To determine the uptake quantitatively, fluorometer was used to measure the intensity of each CPP per cell basis. To rule out the possible artifacts such as CPP only associated with the cell surface and the pH variation from different organelles, cells were trypsinized and washed extensively with PBS, and a buffer with neutral pH was used in this experiment. […] In general, the uptake efficiency of five different CPPs tested can be considered as R11>>KALA≧TAT≧PENE≧K11 among four PCa cells.

[3] = tested on: C4-2 cells; assay: cell growth assay (MTT), serum or DHT-induced proliferation; assay type: cell-based; details: 5 μM peptide, 5% FBS or 10 nM DHT, MTT 4 days
Description: (§1) FIGS. 3A-B—Inhibitory effect of R11PPL on serum and androgen-induced cell proliferation of PCa. LNCaP (FIG. 3A) or C4-2 cells (FIG. 3B) were incubated with 5 μM R11PPL, R11AAL or without peptide 3 hours before adding serum or DHT (10 nM) and relative cell number was determined by MTT assay. All the experiments were carried out in quadruplicates and repeated at least twice. Each column represents mean±SD in triplicate.
(§2) Cell growth assay and cell cycle analysis. Cells were plated in 96-well plate at a density of 10^3 per well in T-medium supplemented with 5% charcoal-stripped FBS for overnight. Cells were incubated with or without indicated peptides (5 μM) for 3 hours in the presence of T-medium supplemented with 0.5% charcoal-stripped FBS. Subsequently, cells were replaced with T-medium containing either 5% FBS or 10 nM dihydrotestosterone (DHT). The peptides were changed every 2 days. The cell proliferation was determined 4 days after the initial peptide treatment by using 3-(4,5-dimethylthiazol-2-yl)-2,5-diphenyltetrazolium bromide (MTT) assay (Roche, Indianapolis, Ind.).

[4] = tested on: LNCaP; assay: as above; assay type: cell-based; details: 5 μM peptide, 5% FBS or 10 nM DHT, MTT 4 days
Description: as §1, §2

[5] = tested on: interaction of Grb2 with SOS; assay: in vitro pull down assay, GST-Grb2 (SH3) binding of SOS; details: C4-2 cell lysate after EGF; peptide 10, 30, 100 μM
Description: (§3) FIGS. 4A-B—Mechanism of action of R11PPL in PCa cells. To determine the function of R11PPL (SEQ ID NO:11) on interaction of Grb2 with SOS, the C4-2 cell lysates were collected after treated with EGF (FIG. 4A). The GST fusion protein with SH3 domain of Grb2 was used for the pull-down assay. The same amount of immobilized GST-Grb2 (SH3) protein (IB:αGST) was incubated with equal amount of cell lysate in addition of no peptide, the increasing amount of control R11AAL (SEQ ID NO:10) or R11PPL (SEQ ID NO:11) peptide as indicated. The binding of SOS was analyzed with Western Blot using SOS1 antibody. DOC-2/DAB2 expression plasmid transfection was used as a positive control. To examine the effect of R11PPL on MAP kinase activity (FIG. 4B), C4-2 cells were incubated with 5 μM R11PPL, R11AAL or R11 (SEQ ID NO:6) peptide 3 hours before adding EGF (10 ng/ml) (top panel) or 5% FBS (bottom panel). Cell lysates were subjected to western blot analysis probed with phosphorylated Erk1 and 2 antibody (αpErk1/2) or total Erk2 antibody (αErk2) used as a loading control. Each experiment has been repeated twice; this graph represents the typical result.
In vitro pull down assay. […] The increasing concentrations of peptide (10, 30, 100 μM) for R11PPL or R11AAL were also added during the incubation. […]

[6] = tested on: MAP kinase (Erk2) activation; assay: Western blot of phosphorylated Erk1/2 in C4-2 cells; assay type: cell-based
Description: as §3
Western blot analysis. Cells were plated in 6-well plates (2×10^5 per well) with T medium containing 5% FBS. […] The protein intensity was detected using an enhanced chemiluminescence detection kit (Amersham, Piscataway, N.J.). […]

[7] = set-up: species or system nude mice; details: in vivo
Description: FIGS. 9A-C—Comparison of delivery efficiency between different length of polyarginines. (FIG. 9A) In vitro uptake by bladder cancer cell lines 30 min after incubation. Relative uptake was determined by fluorometer and normalized using R11 5 μM (=1) in each cell line. (FIG. 9B) Animal study (n=3; 24 h post injection). The peptides (5 nmole/gram body weight) were administered via intravenous (IV) route. SV: seminal vesicle; CG: coagulation gland. (FIG. 9C) The tissue localization of FITC-R11 in mouse bladder.
Although the cellular uptake mechanism of CPPs is not completely understood, they were not supposed to have cell specificity. Also, the efficiency of CPPs delivery varies among different species and length. For example, Mai et al. (2002) has reported that the 8-mer and 10-mer of polylysine have higher cell permeable efficiency for a broad range of cell types than polyarginine does. However, the inventors observed that polyarginine is more efficiency than polylysine in bladder cancer cells (FIG. 9A). In order to further determine whether R11 is the best polyarginine for bladder cancer cells, the inventors examined the uptake efficiency using different lengths of polyarginine.

[8] = tested on: LNCaP; details: human, 5 μM
Description: (§4) The fluorescence-labeled CPPs (TAT, Penetratin (PENE), KALA, R11 & K11) were synthesized and tested in a variety of PCa cells (LNCaP, C4-2, LAPC4 and PC3 cells). […] Different concentrations of each CPP were incubated with cells for 30 minutes prior to cell harvesting. Relative FITC intensity was determined by normalizing fluorescence intensity of each treatment with its cell numbers. […] R11 (5 μM) was incubated with cells at the indicated time. Relative FITC intensity was determined by normalizing fluorescence intensity of each treatment with its cell numbers. […] Cells were pulsed with R11 (5 μM) chased for the indicated time and the percentage of uptake was used time zero (=100%). Each column or data point represents mean±SD in triplicate. […]
(§5) Therefore, the dynamics of R11 uptake was evaluated by incubating cells with 5 μM R11 for 5, 10 and 30 minutes. […]
(§6) To determine the uptake efficiency of each CPP, different concentrations (0.1, 1, 5 μM) of FITC-tagged peptides were incubated with cells for 30 minutes (or different time for the time course study) then cells were washed twice with PBS and trypsinized. After washing with PBS twice, the total cell number was determined and cells were lysed in Tris Buffer (50 mM Tris-HCl, pH 7.5, 150 mM NaCl, 5 mM EDTA, 1% Triton X100). The fluorescence intensity was examined by fluorometer (excitation 490-500 nm; emission 515-525 nm). […]

[9] = tested on: C4-2; details: human, 5 μM
Description: as §4, §5, §6

[10] = tested on: LAPC4; details: human, 5 μM
Description: as §4, §5, §6

[11] = tested on: PC3; details: human, 5 μM
Description: as §4, §5, §6

[12] = tested on: lung metastasis of T24 bladder cancer; details: mouse, in vivo
Description: Top right panel, athymic nude mice were chosen based on a similar size of lung metastasis of bladder cancer from BLI were IV injected with 5 nmole FITC-R11 (left) or FITC (right) per gram body weight. Twenty-four hours after injection, whole body imaging (top left panel) or ex vivo imaging (bottom middle and right panel) of lung was carried out with Maestro In-vivo Imaging System (CRI, Inc.). The image shown is one of the representative experiments.

[13] = in vitro; details: human
Description: as §4, §5, §6

Which “competition of R11 uptake by GAGs” value [1] does the source give for dextran sulfate here?
The value was “effectively compete the uptake of R11”.

Which “uptake of R11, R11AAL and R11PPL compared” value [2] does the source give for “^FITC-G-RRRRRRRRRRR-GGG-FQLRQPPLVPSRKGE ({FITC}-GRRRRRRRRRRRGGGFQLRQPPLVPSRKGE) [R11PPL, FITC-R11 conjugated with PPL (DOC-2/DAB2 PR domain) at C-terminus]” here?
The value was “very similar”.

What about the “serum or DHT-induced cell proliferation” value [3] of the same molecule?
The value was “suppressed”.

And the “serum or DHT-induced cell proliferation” value [4]?
The value was “suppressed”.

What about the “interaction between Grb2 and SOS” value [5] of the same molecule?
The value was “dose-dependent inhibitory effect”.

What about the “serum-induced activation of Erk2” value ([6]; 5 μM peptide 3 hours before 5% FBS) of the same molecule?
The value was “suppressed”.

And the “EGF induced activation of Erk2” value ([6]; 5 μM peptide 3 hours before EGF 10 ng/ml)?
Its value is “could suppress”.

For protamine sulfate, which “competition of R11 uptake by GAGs” value [1] is on record?
The value was “effectively compete the uptake of R11”.

With `N=C(N)NCCC[C@H](NC(=O)[C@H](CCCNC(=N)N)NC(=O)[C@H](CCCNC(=N)N)NC(=O)[C@H](CCCNC(=N)N)NC(=O)[C@H](CCCNC(=N)N)NC(=O)[C@H](CCCNC(=N)N)NC(=O)[C@H](CCCNC(=N)N)NC(=O)[C@H](CCCNC(=N)N)NC(=O)[C@H](CCCNC(=N)N)NC(=O)[C@H](CCCNC(=N)N)NC(=O)[C@H](CCCNC(=N)N)NC(=O)CNC(=S)Nc1ccc2c(c1)C(=O)OC21c2ccc(O)cc2Oc2cc(O)ccc21)C(=O)O` [R11, ^FITC-G-R11] as the molecule, how does the “tissue localization in mouse bladder (histologic examination)” value [7] read?
The value was “presence of R11 in both transitional and stromal cell compartments of bladder”.

And the “half-life of R11” value [8]?
Its value is 23.4 h.

What about the “half-life of R11” value [9] of the same molecule?
Its value is 24.1 h.

What about the “half-life of R11” value [10] of the same molecule?
Its value is 22.8 h.

What about the “half-life of R11” value [11] of the same molecule?
Its value is 24.0 h.

What about the “ex vivo fluorescence signal of lung tumor lesion” value [12] of the same molecule?
The value was “clear fluorescence signal is visualized in the ex vivo tumor lesion”.

And the half-life at 5 μM [13]?
The half-life at 5 μM was 23 to 24 h.

With “^FITC-G-KLALKLALKALKAALKLA ({FITC}-GKLALKLALKALKAALKLA) [KALA, KALA peptide, FITC-labeled]” as the molecule, how does the “uptake efficiency among five CPPs (rank)” value [2] read?
Its value is “R11>>KALA≧TAT≧PENE≧K11”.

For “^FITC-G-RKKRRQRRR (N-terminal FITC-Gly) [TAT, CPP derived from HIV TAT amino acid 49-57, FITC-labeled]”, which “uptake efficiency among five CPPs (rank)” value [2] is on record?
The value was “R11>>KALA≧TAT≧PENE≧K11”.

Which “effect of inhibitor on R11 uptake” value ([1]; pre-treated 2 h, then 5 μM CPPs 30 min) does the source give for `CCN(c1nc(N)c(C(=O)NC(=N)N)nc1Cl)C(C)C` [EIPA] here?
The value was “effectively diminish R11 uptake”.

What does the source list for “^FITC-G- RRRRRRRRRRR -GG-FQLRQAALVASRKGE [R11AAL]”?
uptake of R11, R11AAL and R11PPL compared [2]: very similar; serum or DHT-induced cell proliferation [3]: did not exhibit any effect; serum or DHT-induced cell proliferation [4]: did not exhibit any effect

Which “competition of R11 uptake by GAGs” value [1] does the source give for pentosan sulfate here?
Its value is “effectively compete the uptake of R11”.

B1: DOC-2/DAB2: native protein, expression plasmid transfection used as a positive control in pull-down (protein, UniProt P98082 2-770, looked up)
Disabled homolog 2: SNEVETSATNGQPDQQAAPKAPSKKEKKKGPEKTDEYLLARFKGDGVKYKAKLIGIDDVPDARGDKMSQDSMMKLKGMAAAGRSQGQHKQRIWVNISLSGIKIIDEKTGVIEHEHPVNKISFIARDVTDNRAFGYVCGGEGQHQFFAIKTGQQAEPLVVDLKDLFQVIYNVKKKEEEKKKIEEASKAVENGSEALMILDDQTNKLKSGVDQMDLFGDMSTPPDLNSPTESKDILLVDLNSEIDTNQNSLRENPFLTNGITSCSLPRPTPQASFLPENAFSANLNFFPTPNPDPFRDDPFTQPDQSTPSSFDSLKSPDQKKENSSSSSTPLSNGPLNGDVDYFGQQFDQISNRTGKQEAQAGPWPFSSSQTQPAVRTQNGVSEREQNGFSVKSSPNPFVGSPPKGLSIQNGVKQDLESSVQSSPHDSIAIIPPPQSTKPGRGRRTAKSSANDLLASDIFAPPVSEPSGQASPTGQPTALQPNPLDLFKTSAPAPVGPLVGLGGVTVTLPQAGPWNTASLVFNQSPSMAPGAMMGGQPSGFSQPVIFGTSPAVSGWNQPSPFAASTPPPVPVVWGPSASVAPNAWSTTSPLGNPFQSNIFPAPAVSTQPPSMHSSLLVTPPQPPPRAGPPKDISSDAFTALDPLGDKEIKDVKEMFKDFQLRQPPAVPARKGEQTSSGTLSAFASYFNSKVGIPQENADHDDFDANQLLNKINEPPKPAPRQVSLPVTKSTDNAFENPFFKDSFGSSQASVASSQPVSSEMYRDPFGNPFA
With B1 as the molecule, how does the “interaction between Grb2 and SOS” value [5] read?
Its value is “inhibited”.
